pIC50: −log10 of the molar value.
How the values were obtained:
[1] = target: Tyrosine-protein kinase JAK1 (Homo sapiens, UniProt P23458); assay: Jak1 Kinase Activity Test In Vitro
Method: JAK1(h) was incubated with 20 mM Tris/HCl pH 7.5, 0.2 mM EDTA, 500 μM MGEEPLYWSFPAKKK (SEQ ID NO: 1), 10 mM magnesium acetate and [γ-33P]-ATP (activity and concentration were determined as required). The reaction was started by adding the Mg/ATP mixture, and after incubation at room temperature for 40 min, the reaction was terminated by adding 0.5% phosphoric acid. Then 10 μL of the reaction product was spotted on a P30 filter pad which was washed three times with 0.425% phosphoric acid and once with methanol within 4 min, dried, and subjected to scintillation counting.

[2] = target: T1, Tyrosine-protein kinase JAK3 (Homo sapiens, UniProt P52333); assay: Jak3 Kinase Activity Test In Vitro
T1 sequence (P52333 whole entry): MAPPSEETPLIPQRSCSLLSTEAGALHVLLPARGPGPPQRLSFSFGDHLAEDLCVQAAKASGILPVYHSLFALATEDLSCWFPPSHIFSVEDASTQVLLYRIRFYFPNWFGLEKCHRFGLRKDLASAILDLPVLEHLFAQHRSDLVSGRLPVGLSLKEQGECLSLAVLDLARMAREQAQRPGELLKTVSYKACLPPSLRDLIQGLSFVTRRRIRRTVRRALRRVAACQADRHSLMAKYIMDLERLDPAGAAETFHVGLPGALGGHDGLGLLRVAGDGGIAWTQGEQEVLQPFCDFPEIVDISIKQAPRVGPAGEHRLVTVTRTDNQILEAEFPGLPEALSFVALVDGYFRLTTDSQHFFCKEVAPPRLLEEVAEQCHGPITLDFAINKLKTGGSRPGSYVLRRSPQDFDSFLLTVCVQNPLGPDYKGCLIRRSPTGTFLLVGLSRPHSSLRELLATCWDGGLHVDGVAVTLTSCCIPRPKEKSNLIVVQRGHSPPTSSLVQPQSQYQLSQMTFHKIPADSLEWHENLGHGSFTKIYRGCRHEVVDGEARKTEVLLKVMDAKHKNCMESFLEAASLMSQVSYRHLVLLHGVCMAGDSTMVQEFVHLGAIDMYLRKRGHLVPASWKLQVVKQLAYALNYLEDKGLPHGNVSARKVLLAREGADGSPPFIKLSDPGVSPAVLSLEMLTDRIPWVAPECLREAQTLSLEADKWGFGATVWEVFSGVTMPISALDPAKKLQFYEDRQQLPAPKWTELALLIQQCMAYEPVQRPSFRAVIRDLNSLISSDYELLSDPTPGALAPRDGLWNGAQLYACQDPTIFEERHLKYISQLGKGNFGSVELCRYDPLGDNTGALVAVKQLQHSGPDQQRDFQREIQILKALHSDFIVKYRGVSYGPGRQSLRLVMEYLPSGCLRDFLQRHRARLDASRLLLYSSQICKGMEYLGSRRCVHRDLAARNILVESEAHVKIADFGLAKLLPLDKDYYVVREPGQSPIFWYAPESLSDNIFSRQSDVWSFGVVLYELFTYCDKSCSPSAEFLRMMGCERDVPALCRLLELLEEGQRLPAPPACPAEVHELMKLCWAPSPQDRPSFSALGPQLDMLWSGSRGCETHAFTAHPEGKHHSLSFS
Method: (§1) JAK3(h) was incubated with 8 mM MOPS pH 7.0, 0.2 mM EDTA, 500 μM GGEEEEYFELVKKKK (SEQ ID NO: 3), 10 mM magnesium acetate, and [γ-33P]-ATP (activity and concentration were determined as required). The reaction was started by adding the Mg/ATP mixture, and after incubation at room temperature for 40 min, the reaction was terminated by adding 0.5% phosphoric acid. Then 10 μL of the reaction product was spotted on a P30 filter pad which was washed three times with 0.425% phosphoric acid and once with methanol within 4 min, dried, and subjected to scintillation counting.

[3] = target: Non-receptor tyrosine-protein kinase TYK2 (Homo sapiens, UniProt P29597); assay: TYK2 Kinase Activity Test In Vitro
Method: as §1, with “TYK2(h)” for “JAK3(h)”, “250” for “500”, “GGMEDIYFEFMGGKKK” for “GGEEEEYFELVKKKK”, “4),” for “3),”

[4] = target: Tyrosine-protein kinase JAK2 (Homo sapiens, UniProt O60674); assay: Jak2 Kinase Activity Test In Vitro
Method: as §1, with “JAK2(h)” for “JAK3(h)”, “100” for “500”, “GGEEEEYFELVKKKK” left out, “2),” for “3),”

Sequence of Non-receptor tyrosine-protein kinase TYK2 (P29597 whole entry): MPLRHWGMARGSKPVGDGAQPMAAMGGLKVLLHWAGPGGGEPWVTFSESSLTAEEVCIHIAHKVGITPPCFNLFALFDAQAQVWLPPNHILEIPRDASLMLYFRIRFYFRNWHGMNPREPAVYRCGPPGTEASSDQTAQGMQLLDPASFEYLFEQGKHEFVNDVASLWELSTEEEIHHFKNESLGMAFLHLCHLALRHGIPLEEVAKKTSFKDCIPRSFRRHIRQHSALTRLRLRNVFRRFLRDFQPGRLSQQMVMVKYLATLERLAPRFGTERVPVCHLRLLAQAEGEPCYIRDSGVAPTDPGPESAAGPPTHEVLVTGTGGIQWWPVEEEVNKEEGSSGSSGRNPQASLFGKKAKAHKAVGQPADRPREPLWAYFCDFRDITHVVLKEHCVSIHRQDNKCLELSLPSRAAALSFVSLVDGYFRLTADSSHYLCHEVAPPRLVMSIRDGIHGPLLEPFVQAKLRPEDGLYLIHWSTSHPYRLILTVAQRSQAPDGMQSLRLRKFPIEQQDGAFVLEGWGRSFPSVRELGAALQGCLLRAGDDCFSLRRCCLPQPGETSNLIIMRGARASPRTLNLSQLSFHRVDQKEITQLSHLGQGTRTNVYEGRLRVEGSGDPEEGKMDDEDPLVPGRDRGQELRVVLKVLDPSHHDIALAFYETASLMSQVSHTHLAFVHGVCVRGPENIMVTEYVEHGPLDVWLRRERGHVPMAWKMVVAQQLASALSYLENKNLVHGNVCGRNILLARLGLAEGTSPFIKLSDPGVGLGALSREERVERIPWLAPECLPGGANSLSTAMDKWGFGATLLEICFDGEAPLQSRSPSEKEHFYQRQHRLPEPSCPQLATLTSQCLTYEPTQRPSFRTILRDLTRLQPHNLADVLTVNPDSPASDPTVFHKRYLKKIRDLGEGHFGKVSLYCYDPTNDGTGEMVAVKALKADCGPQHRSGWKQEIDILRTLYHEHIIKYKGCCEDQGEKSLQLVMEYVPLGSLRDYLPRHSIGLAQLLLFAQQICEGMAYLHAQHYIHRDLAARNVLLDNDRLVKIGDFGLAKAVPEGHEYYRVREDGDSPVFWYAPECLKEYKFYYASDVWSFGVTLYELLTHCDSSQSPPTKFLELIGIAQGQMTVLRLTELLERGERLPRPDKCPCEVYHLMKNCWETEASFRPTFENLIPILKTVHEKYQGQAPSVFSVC
Sequence of Tyrosine-protein kinase JAK1 (P23458 whole entry): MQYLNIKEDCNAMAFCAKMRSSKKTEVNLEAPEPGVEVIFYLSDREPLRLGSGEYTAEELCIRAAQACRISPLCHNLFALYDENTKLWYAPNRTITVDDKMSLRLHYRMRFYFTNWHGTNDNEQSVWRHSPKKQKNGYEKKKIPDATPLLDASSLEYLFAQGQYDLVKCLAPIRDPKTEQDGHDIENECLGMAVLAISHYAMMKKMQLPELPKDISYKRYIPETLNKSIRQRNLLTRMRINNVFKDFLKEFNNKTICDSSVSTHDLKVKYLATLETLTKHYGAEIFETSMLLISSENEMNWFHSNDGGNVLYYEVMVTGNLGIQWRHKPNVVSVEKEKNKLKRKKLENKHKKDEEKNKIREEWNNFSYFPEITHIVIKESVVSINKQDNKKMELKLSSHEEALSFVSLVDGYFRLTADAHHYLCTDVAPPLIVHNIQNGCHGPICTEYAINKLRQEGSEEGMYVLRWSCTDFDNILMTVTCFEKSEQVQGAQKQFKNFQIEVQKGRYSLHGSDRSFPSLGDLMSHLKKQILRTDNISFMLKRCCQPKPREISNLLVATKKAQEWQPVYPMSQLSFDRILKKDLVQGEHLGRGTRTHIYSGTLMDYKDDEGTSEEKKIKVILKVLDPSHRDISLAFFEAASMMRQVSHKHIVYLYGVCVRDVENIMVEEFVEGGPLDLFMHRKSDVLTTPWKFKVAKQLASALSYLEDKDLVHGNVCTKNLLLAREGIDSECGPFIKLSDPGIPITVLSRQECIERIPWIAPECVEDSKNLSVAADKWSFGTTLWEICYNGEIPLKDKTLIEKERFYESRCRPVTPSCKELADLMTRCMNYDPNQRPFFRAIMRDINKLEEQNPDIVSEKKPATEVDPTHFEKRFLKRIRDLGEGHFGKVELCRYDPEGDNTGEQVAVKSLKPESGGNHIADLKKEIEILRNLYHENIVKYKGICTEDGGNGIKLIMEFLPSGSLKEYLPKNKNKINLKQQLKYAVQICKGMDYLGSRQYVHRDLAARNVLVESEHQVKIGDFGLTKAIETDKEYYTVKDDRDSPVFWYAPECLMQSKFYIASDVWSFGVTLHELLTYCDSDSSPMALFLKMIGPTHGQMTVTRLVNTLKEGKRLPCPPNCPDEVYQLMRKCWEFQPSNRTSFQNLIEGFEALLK
Sequence of Tyrosine-protein kinase JAK2 (O60674 whole entry): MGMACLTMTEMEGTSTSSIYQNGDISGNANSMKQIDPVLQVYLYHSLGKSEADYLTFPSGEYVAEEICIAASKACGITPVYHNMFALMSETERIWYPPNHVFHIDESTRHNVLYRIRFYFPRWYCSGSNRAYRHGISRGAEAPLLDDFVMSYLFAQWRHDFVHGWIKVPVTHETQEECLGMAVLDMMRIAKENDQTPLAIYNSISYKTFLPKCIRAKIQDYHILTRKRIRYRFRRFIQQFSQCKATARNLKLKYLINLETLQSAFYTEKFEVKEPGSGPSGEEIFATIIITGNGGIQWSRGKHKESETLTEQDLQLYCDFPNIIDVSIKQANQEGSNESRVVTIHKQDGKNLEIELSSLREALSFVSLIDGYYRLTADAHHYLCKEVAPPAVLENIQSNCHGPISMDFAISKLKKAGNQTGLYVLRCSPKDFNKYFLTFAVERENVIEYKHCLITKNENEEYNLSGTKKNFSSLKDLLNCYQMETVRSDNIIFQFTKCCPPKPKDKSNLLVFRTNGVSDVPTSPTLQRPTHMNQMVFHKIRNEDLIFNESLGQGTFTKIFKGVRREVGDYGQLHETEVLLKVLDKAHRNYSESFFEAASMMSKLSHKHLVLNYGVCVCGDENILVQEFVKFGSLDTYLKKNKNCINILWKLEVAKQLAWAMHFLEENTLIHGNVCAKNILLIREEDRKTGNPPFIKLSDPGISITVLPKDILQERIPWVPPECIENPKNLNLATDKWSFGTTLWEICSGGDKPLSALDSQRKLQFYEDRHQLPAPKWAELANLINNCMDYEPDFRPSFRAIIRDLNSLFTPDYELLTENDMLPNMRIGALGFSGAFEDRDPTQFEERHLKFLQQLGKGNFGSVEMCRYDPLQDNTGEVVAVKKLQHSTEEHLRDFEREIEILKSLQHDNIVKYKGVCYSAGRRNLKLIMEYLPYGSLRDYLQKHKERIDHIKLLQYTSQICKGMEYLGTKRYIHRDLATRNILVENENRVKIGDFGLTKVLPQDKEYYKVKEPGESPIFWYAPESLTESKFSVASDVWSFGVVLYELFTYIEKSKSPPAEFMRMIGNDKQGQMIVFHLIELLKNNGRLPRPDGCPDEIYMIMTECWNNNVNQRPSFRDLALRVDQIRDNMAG

SMILES | pIC50 [1] | pIC50 [2] | pIC50 [3] | pIC50 [4]
Cn1cc(-c2cn3nccc3c(-c3cnn([C@]4(CC#N)CC5(C[C@@H](C#N)C5)C4)c3)n2)cn1 (some centres undefined) [US20250011332, Compound 2] | 6.91 | 6.32 | 8.70 | –
Cn1cc(-c2cn3nccc3c(-c3cnn([C@]4(CC#N)CC5(C[C@@H](C#N)C5)C4)c3)n2)cn1 (some centres undefined) [US20250011332, Compound 4] | – | – | 7.70 | –
Cn1ccc(-c2cn3nccc3c(-c3cnn(C4(CC#N)CC5(CCN(C#N)C5)C4)c3)n2)n1 (centres undefined) [US20250011332, Compound 10] | 6.55 | ≤ 5.00 | 7.52 | 7.48
Cn1ccc(-c2cn3nccc3c(-c3cnn([C@]4(CC#N)CC5(CC[C@@H](C#N)CC5)C4)c3)n2)n1 (some centres undefined) [US20250011332, Compound 12] | 6.91 | 5.11 | 8.22 | 6.86
Cn1ccc(-c2cn3nccc3c(-c3cnn([C@]4(CC#N)CC5(CC[C@@H](C#N)CC5)C4)c3)n2)n1 (some centres undefined) [US20250011332, Compound 13] | 6.63 | 5.97 | 8.00 | 6.99
Cn1cc(-c2cc(-c3cnn([C@]4(CC#N)CC5(C[C@H](C#N)C5)C4)c3)c3ccnn3c2)cn1 (some centres undefined) [US20250011332, Compound 17] | 6.64 | < 6.00 | – | 7.55

Continued by rising pIC50 [1], values first:

pIC50 [1] | pIC50 [2] | pIC50 [3] | pIC50 [4] | SMILES
7.38 | 6.17 | 8.70 | 8.22 | Cn1ncc(-c2cn3nccc3c(-c3cnn([C@]4(CC#N)CC5(C[C@H](C#N)C5)C4)c3)n2)c1N (some centres undefined) [US20250011332, Compound 19]
7.85 | 6.32 | 9.00 | – | N#CC[C@]1(n2cc(-c3nc(-c4cc(N)[nH]n4)cn4nccc34)cn2)CC2(C[C@@H](C#N)C2)C1 (some centres undefined) [US20250011332, Compound 20]
7.92 | 7.03 | – | 8.52 | Cn1ncc(-c2cn3nccc3c(-c3cnn([C@]4(CC#N)CC5(C[C@H](C#N)C5)C4)c3)n2)c1N (some centres undefined) [US20250011332, Compound 18]
